Laboratory results from ChEMBL document CHEMBL4673274, “Cytotoxic components from the leaves of Erythrophleum fordii induce human acute leukemia cell apoptosis through caspase 3 activation and PARP cleavage” (Bioorg Med Chem Lett, 2021).
The source made the active and inactive calls. The calls are words filed in the database; no cut-off is given here.

Tests used:
Type in all cases: functional, cell-based
[1] = test system: KG-1; assay: Cytotoxicity against human KG-1 cells assessed as reduction in cell viability incubated for 48 hrs by CCK-8 assay; settings: KG-1, 48 h
[2] = test system: HL-60; assay: Cytotoxicity against human HL-60 cells assessed as reduction in cell viability incubated for 48 hrs by CCK-8 assay; settings: HL-60, 48 h
[3] = test system: HL-60; assay: Induction of apoptosis in human HL-60 cells assessed as increase in Bax expression at 10 to 30 uM incubated for 48 hrs by Western blot analysis; settings: dose 10-30 µM
[4] = test system: KG-1; assay: Induction of apoptosis in human KG-1 cells assessed as caspase 9 activation incubated for 48 hrs by Western blot analysis; settings: dose 10-30 µM
[5] = test system: HL-60; assay: Induction of apoptosis in human HL-60 cells assessed as caspase 9 activation incubated for 48 hrs by Western blot analysis; settings: dose 10-30 µM
[6] = test system: KG-1; assay: Induction of apoptosis in human KG-1 cells assessed as increase in PARP cleavage incubated for 48 hrs by Western blot analysis; settings: dose 10-30 µM
[7] = test system: KG-1; assay: Induction of apoptosis in human KG-1 cells assessed as caspase 3 activation incubated for 48 hrs by Western blot analysis; settings: dose 10-30 µM
[8] = test system: HL-60; assay: Induction of apoptosis in human HL-60 cells assessed as caspase 3 activation incubated for 48 hrs by Western blot analysis; settings: dose 10-30 µM
[9] = test system: HL-60; assay: Induction of apoptosis in human HL-60 cells assessed as increase in Cyt-c expression at 10 to 30 uM incubated for 48 hrs by Western blot analysis; settings: dose 10-30 µM
[10] = test system: HL-60; assay: Induction of apoptosis in human HL-60 cells assessed as decrease in Bcl2 expression incubated for 48 hrs by Western blot analysis; settings: dose 10-30 µM
[11] = test system: HL-60; assay: Induction of apoptosis in human HL-60 cells assessed as increase in PARP cleavage incubated for 48 hrs by Western blot analysis; settings: dose 10-30 µM

Row | SMILES | IC50 [1] | IC50 [2] | also measured
1 | CC[C@@]1(O)C(=O)OCc2c1cc1n(c2=O)Cc2cc3ccccc3nc2-1 [CAMPTOTHECIN] | 1.6 µM | 1.7 µM | –
2 | CCOC(C)=O [ETHYL ACETATE] | > 300 µg/mL | 216 µg/mL | –
3 | COC(=O)CC1=CC[C@H]2[C@@H](C(=O)[C@H](O)[C@@H]3[C@]2(C)CCC[C@]3(C)C(=O)OC)[C@H]1C | 42.2 µM | 28.5 µM | –
4 | COC(=O)[C@]1(C)[C@@H]2[C@@H](O)C(=O)[C@H]3[C@@H](C)/C(=C/C(=O)O)CC[C@@H]3[C@@]2(C)CC[C@@H]1O | > 50 µM | 28.7 µM | –
5 | COC(=O)[C@]1(C)[C@@H]2C(=O)[C@H](OC(C)=O)[C@H]3[C@@H](C)/C(=C/C(=O)O)CC[C@@H]3[C@@]2(C)CC[C@@H]1O | 18.6 µM | 15.2 µM | Activity [3]: Active; Activity [4]: Dose-dependent effect; Activity [5]: Dose-dependent effect; Activity [6]: Dose-dependent effect; Activity [7]: Dose-dependent effect; Activity [8]: Dose-dependent effect; Activity [9]: Active; Activity [10]: Dose-dependent effect; Activity [11]: Dose-dependent effect
6 | ClCCl [METHYLENE CHLORIDE] | 149 µg/mL | 116 µg/mL | –
7 | COC(=O)/C=C1\CC[C@H]2[C@@H](C(=O)[C@H](O)[C@@H]3[C@]2(C)CC[C@H](O)[C@]3(C)C(=O)OC)[C@H]1C | > 50 µM | 25.7 µM | –
8 | COC(=O)[C@]1(C)[C@@H]2C(=O)[C@H](O)[C@H]3[C@@H](C)/C(=C/C(=O)O)CC[C@@H]3[C@@]2(C)CC[C@@H]1O | 35.7 µM | 24.3 µM | –
9 | CCCCCC [HEXANE] | – | > 300 µg/mL | –
